SMILES strings stand for the structures. Where “and” joins values, the source holds several entries; their conditions need not be identical. Equal values may be shown once.

The nature of data set [1]: 21-day oral toxicity observation in rats. It is filed as in vivo, male Hsd:(SD)BR rats. The conditions noted are these: orally twice daily for 21 consecutive days, total daily dose 100 mg/Kg. The procedure: Five male Hsd:(SD)BR rats weighing 205-215 g were acclimated for approximately one week prior to use under standard laboratory conditions. Naproxen thiocholine ester iodide, suspended in aqueous carboxymethylcellulose vehicle was administered orally twice daily in a volume of 1.0 ml per 200 g body weight for 21 consecutive days at a total daily dose of 100 mg/Kg.

The test system of data set [2] is Adjuvant-Induced Arthritis in the Rat. The data set is described as follows: Rat adjuvant-induced arthritis assay. The conditions noted are these: oral. Type of data set: in vivo, Female Crl:CD, br rats. The procedure: Female Crl:CD, br rats weighting 160-180 gm were randomly distributed to treatment groups of 12 animals, and were given food and water ad libitum. Test materials were prepared fresh weekly as suspensions in aqueous carboxymethyl cellulose. Animals were orally dosed with volumes of 1 ml twice per day Monday through Friday, and with 2 ml once per day on Saturdays and Sundays. At time 0, rats were injected intradermally in the proximal quarter of the tail with 0.1 ml of a mineral oil suspension of heat killed and dried Mycobacterium butyricum (Difco) at a concentration of 10 mg/ml. After sacrifice, the hind paws of each animal were removed and weighed.

The test system of the next data set is Intestinal Tract of Rats. Description: Test for ability to cause gastro-intestinal erosion in rats. Type of data set: in vivo, Male Lai: COX (SD) rats. The procedure:
Male Lai: COX (SD) rats weighing 200-250 gm were acclimated for one week under standard laboratory conditions. Each animal was individually indentified and body weights were determined on the first day of the test and again at autopsy. The test materials, suspended in aqueous carboxymethyl cellulose vehicle, were administered orally once daily in a volume of 1.0ml per 100g body weight for four consecutive days. Food was withdrawn from the animals following the last dose and the animals were sacrificed 24 hours later. At necropsy, the stomach and intestines were removed and observed for lesions. […] The incidence of lesions for each dose level tested is reported.

Data set [3] deals with Intestinal Ulceration in Rats Induced by the Subcutaneous Administration of Indomethacin. The data set is described as follows: Protective effect against intestinal ulceration induced by subcutaneous indomethacin. It is filed as in vivo, Male Crl:D,br rats. The conditions noted are these: indomethacin 4 mg/kg/day s.c. for four days, score 0-10, vehicle 5.8 ± 1.8. The method, then: Male Crl:D,br rats weighing approximately 200 gm received indomethacin, 4 mg/kg, injected subcutaneously each day for four consecutive days to induce the formation of erosions and ulcers of the small intestine. Food was removed following the last dose of indomethacin and the rats were necropsied 18-24 hours later. Erosions of small intestine were scored as follows: 0 - no detectable lesions 2 - small ulcerattions (1-15) less than 1 mm 4 - small ulcerations plus 1-10 medium (2-3 mm) ulcerations 6 - predominantly medium ulceratiaons plus 2-5 severe (>4mm) ulcers without evidence of perforation 8 - many (>20) medium and severe ulcerations with evidence of perforation 10 - animals dying during assay as a consequence of intestinal perforation and septicemia.
Agents to be tested for protective effects were administered orally in an aqueous vehicle, with one-half the daily dose being administered 4 hours prior to indomethacin injection and one half the daily dose being administered at the time of indomethacin injection.

Setting [4] is: daily dose 200 mg/kg orally, four consecutive days, erosions graded 0-10, five rats.
Setting [5] is: daily dose 300 mg/kg orally, four consecutive days, erosions graded 0-10, five rats, 300 mg/kg.
Setting [6] is: daily dose 400 mg/kg orally, four consecutive days, erosions graded 0-10, five rats, 400 mg/kg.
Where [7] appears, read: daily dose 25 mg/kg orally, four consecutive days, erosions graded 0-10, five rats.
Where [8] appears, read: daily dose 5 mg/kg orally, four consecutive days, erosions graded 0-10, five rats.

Turning to `COc1ccc2cc([C@H](C)C(=O)SCC[N+](C)(C)C)ccc2c1` [Naproxen thiocholine ester iodide, NAPROXEN THIOCHOLINE ESTER IODIDE], in data set [1], the “gross signs of toxicity” value is “did not produce any gross signs of toxicity”. For the same compound, the “Percent Inhibition of Hind Paw Weight” value in data set [2] (daily dose 7.0 mg/kg) was 40%; in data set [2] (daily dose 10 mg/kg) it was 69%; in data set [2] (daily dose 14 mg/kg, 14 mg/kg), 40% and 53%; in data set [2] (daily dose 28 mg/kg, 28 mg/kg), 51% and 75%. Moreover, the “Mean Intestinal Ulcer Score ± 1Std. Dev.” value in the data set on Intestinal Tract of Rats (daily dose 150 mg/kg orally, four consecutive days, erosions graded 0-10, five rats) is on record as 0; with Intestinal Tract of Rats (setting [4]), 0.4 ± 0.9; in the data set with Intestinal Tract of Rats (daily dose 250 mg/kg orally, four consecutive days, erosions graded 0-10, five rats), 1.6 ± 1.7; with Intestinal Tract of Rats (setting [5]), 3.0 ± 1.7; in the data set with Intestinal Tract of Rats (setting [6]), 7.2 ± 1.1. Further, the “Intestinal Erosion Score Mean ± S.D.” value was 4.0 ± 2.4 in data set [3] (oral dose 5 mg/kg/day), 2.4 ± 0.9 in data set [3] (oral dose 10 mg/kg/day), 1.8 ± 2.4 in data set [3] (oral dose 20 mg/kg/day) and 0.8 ± 1.1 in data set [3] (oral dose 50 mg/kg/day).

On to `C[N+](C)(C)CCSC(=O)C1CCn2c(C(=O)c3ccccc3)ccc21` (centres unmarked) [Ketorolac thiocholine ester iodide, ketorolac thiocholine ester iodide], for which the “Percent Inhibition of Hind Paw Weight” value in data set [2] (daily dose 1.0 mg/kg) is 10%; in data set [2] (daily dose 5.0 mg/kg, 5 mg/kg) it was 79% and 56%. The “Mean Intestinal Ulcer Score ± 1Std. Dev.” value is listed as 2.0 ± 2.0 in the data set with Intestinal Tract of Rats (setting [7]); 6.4 ± 0.9 in the data set with Intestinal Tract of Rats (daily dose 50 mg/kg orally, four consecutive days, erosions graded 0-10, five rats); 7.2 ± 1.1 with Intestinal Tract of Rats (daily dose 75 mg/kg orally, four consecutive days, erosions graded 0-10, five rats).

As for `O=C(c1ccccc1)c1ccc2n1CCC2C(=O)O` (centres unmarked) [Ketorolac, ketorolac, reference compound], the “Percent Inhibition of Hind Paw Weight” value in data set [2] (daily dose 0.1 mg/kg) came out at 5%; in data set [2] (daily dose 0.5 mg/kg) it was 14%; in data set [2] (daily dose 2.5 mg/kg), 59%. In addition, the “Mean Intestinal Ulcer Score ± 1Std. Dev.” value with Intestinal Tract of Rats (setting [8]) came out at 1.9 ± 0.9; in the data set with Intestinal Tract of Rats (rat, in vivo, po, 10 mg/kg), 4.8 ± 1.7; with Intestinal Tract of Rats (rat, in vivo, po, 20 mg/kg) it was 7.4 ± 1.7.

Turning to `COc1ccc2cc([C@H](C)C(=O)O)ccc2c1` [Naproxen, 2-(6′-methoxy-2′-naphthyl)propionic acid, reference compound], the “Percent Inhibition of Hind Paw Weight” value worked out at 22% in data set [2] (daily dose 1.4 mg/kg), 70% in data set [2] (daily dose 3.5 mg/kg) and 77% in data set [2] (daily dose 7.0 mg/kg). Moreover, the “Mean Intestinal Ulcer Score ± 1Std. Dev.” value was 1.6 ± 0.9 with Intestinal Tract of Rats (daily dose 20 mg/kg orally, four consecutive days, erosions graded 0-10, five rats); 3.2 ± 1.1 in the data set with Intestinal Tract of Rats (setting [7]); 6.4 ± 1.7 in the data set on Intestinal Tract of Rats (daily dose 30 mg/kg orally, four consecutive days, erosions graded 0-10, five rats); 7.6 ± 0.9 in the data set on Intestinal Tract of Rats (daily dose 35 mg/kg orally, four consecutive days, erosions graded 0-10, five rats).

Consider `COc1ccc2cc([C@H](C)C(=O)SCC[N+](C)(C)C)ccc2c1` [Naproxen thiocholine ester chloride, naproxen thiocholine ester chloride], for which the “Mean Intestinal Ulcer Score ± 1Std. Dev.” value in the data set with Intestinal Tract of Rats (setting [4]) is reported as 0.4 ± 0.9; in the data set on Intestinal Tract of Rats (setting [5]), 1.6 ± 0.9; in the data set with Intestinal Tract of Rats (setting [6]) it was 5.6 ± 2.2.

Turning to `COc1ccc2c(c1)c(CC(=O)O)c(C)n2C(=O)c1ccc(Cl)cc1` [Indomethacin, indomethacin, reference compound], the “Percent Inhibition of Hind Paw Weight” value in data set [2] (daily dose 2.0 mg/kg) is reported as 75%. Besides, in the data set on Intestinal Tract of Rats (setting [8]), the “Mean Intestinal Ulcer Score ± 1Std. Dev.” value came out at 7.2 ± 1.9.

Take `COc1ccc2c(c1)c(CC(=O)SCC[N+](C)(C)C)c(C)n2C(=O)c1ccc(Cl)cc1` [Indomethacin thiocholine ester iodide, indomethacin thiocholine ester iodide]: the “Percent Inhibition of Hind Paw Weight” value in data set [2] (daily dose 7.0 mg/kg) came to 15%; in data set [2] (daily dose 14 mg/kg), 59%. The “Mean Intestinal Ulcer Score ± 1Std. Dev.” value is reported as 0 with Intestinal Tract of Rats (setting [7]) and 0 in the data set on Intestinal Tract of Rats (daily dose 100 mg/kg orally, four consecutive days, erosions graded 0-10, five rats).

For the origin of these results see patent EP0289262A2, “Omega-quaternary ammonium alkyl esters and thioesters of acidic nonsteroidal antiinflammatory drugs” (priority 1987, dated 1988).
